# Measurements reported in patent US12503463B2, “Aliphatic acid amide derivative” (Sumitomo Pharma Co., Ltd., priority 2019, dated 2025).
# Columns and labels:
# [1] = Test 3-1: metabolic stability test in human hepatic microsome; assay type: in vitro ADME; conditions: Test 3-1: microsome 0.1 mg/mL, test compound 0.1 μmol/L, 37° C., 30 minutes
# Procedure: Test 3-1: Metabolic Stability Test in Human Hepatic Microsome
# (§1) The metabolic stability of the present compound in human hepatic microsome was evaluated as mentioned below. Human hepatic microsome was obtained from Xenontech. Human hepatic microsome, NADPH, and each test compound were mixed in 25 mmol/L phosphate buffer solution (pH 7.4) to reach the following concentrations as shown below, and the mixture was incubated at 37° C. for 30 minutes. • Human hepatic microsome: 0.1 mg/mL • NAPDH: 3.2 mmol/L • Test compound: 0.1 μmol/L
# (§2) The residual ratio of test compound in each sample after 30 minutes was measured by LC-MS, and the metabolic stability in human hepatic microsome was calculated from the following formula. Metabolic stability in human hepatic microsome(mL/min/mg protein)=−LN(residual ratio)/30/0.1
# [2] = Test 3-2: metabolic stability test in human hepatic microsome (higher microsome concentration); assay type: in vitro ADME; conditions: Test 3-2: microsome 0.5 or 1.0 mg/mL, test compound 0.1 μmol/L, 30 or 60 minutes
# Procedure: Test 3-2: Metabolic Stability Test in Human Hepatic Microsome
# as §1, with “For more accurate evaluation of the metabolic stability in human hepatic microsome, the metabolic” for “The metabolic”, “evaluated at an appropriate concentration of human hepatic microsome” for “evaluated”, “for 60” for “for 30”, “microsome: 0.5 or 1.0” for “microsome: 0.1”
# as §2, with “of a” for “of”, “30 or 60” for “30”, “ratio)/reaction time/concentration of human hepatic microsome” for “ratio)/30/0.1”
# human D2 receptor = target: T1, human D2 receptor (Homo sapiens, UniProt P14416); experiment: Test 1: binding activity for human D2 receptor ([3H]Spiperone, CHO cell membrane fraction); conditions: for D2 Ki/5-HT2A Ki / D2 Ki/5-HT7 Ki: ratio of Ki values
# T1 construct: purchased PerkinElmer, Inc; host or cells: CHO cells (membrane fraction)
# T1 sequence (P14416 whole entry): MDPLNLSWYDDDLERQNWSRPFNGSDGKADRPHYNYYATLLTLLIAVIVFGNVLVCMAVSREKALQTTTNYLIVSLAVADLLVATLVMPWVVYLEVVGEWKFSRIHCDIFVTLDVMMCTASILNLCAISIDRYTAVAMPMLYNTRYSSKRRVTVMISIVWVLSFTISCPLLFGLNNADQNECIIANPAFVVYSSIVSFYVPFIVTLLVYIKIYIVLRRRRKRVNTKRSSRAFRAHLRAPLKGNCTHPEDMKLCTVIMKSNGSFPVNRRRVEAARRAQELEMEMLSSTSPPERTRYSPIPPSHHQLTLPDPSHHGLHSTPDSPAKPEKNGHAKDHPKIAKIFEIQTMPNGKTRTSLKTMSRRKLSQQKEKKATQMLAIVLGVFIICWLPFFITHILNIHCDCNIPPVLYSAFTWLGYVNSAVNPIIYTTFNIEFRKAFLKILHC
# Procedure: (§3) Ki value was evaluated from dissociation constant which was calculated from saturated binding tests, and a substrate concentration, and it was used as an index for binding affinity.
# human 5-HT2A receptor [3] = target: T2, human 5-HT2A receptor (Homo sapiens, UniProt P28223); experiment: Test 1: binding activity for human 5-HT2A receptor ([3H]Ketanserin, CHO cell membrane fraction)
# T2 sequence (P28223 whole entry): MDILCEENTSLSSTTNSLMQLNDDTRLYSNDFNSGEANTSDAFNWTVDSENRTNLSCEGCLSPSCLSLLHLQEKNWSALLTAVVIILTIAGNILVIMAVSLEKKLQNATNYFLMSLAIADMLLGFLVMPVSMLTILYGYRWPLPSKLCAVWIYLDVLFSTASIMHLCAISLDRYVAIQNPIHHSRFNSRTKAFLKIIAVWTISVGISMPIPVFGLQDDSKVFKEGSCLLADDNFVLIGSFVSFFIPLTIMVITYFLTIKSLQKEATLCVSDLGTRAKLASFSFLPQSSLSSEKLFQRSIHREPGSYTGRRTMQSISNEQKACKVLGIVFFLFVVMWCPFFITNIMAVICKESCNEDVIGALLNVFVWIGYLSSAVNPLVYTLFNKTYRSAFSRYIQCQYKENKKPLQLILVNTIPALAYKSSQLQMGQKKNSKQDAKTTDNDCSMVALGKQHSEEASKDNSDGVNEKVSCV
# Procedure: as §3
# human 5-HT7 receptor [4] = target: T3, human 5-HT7 receptor (Homo sapiens, UniProt P34969); experiment: Test 1: binding activity for human 5-HT7 receptor ([3H]SB-269970, CHO cell membrane fraction)
# T3 sequence (P34969 whole entry): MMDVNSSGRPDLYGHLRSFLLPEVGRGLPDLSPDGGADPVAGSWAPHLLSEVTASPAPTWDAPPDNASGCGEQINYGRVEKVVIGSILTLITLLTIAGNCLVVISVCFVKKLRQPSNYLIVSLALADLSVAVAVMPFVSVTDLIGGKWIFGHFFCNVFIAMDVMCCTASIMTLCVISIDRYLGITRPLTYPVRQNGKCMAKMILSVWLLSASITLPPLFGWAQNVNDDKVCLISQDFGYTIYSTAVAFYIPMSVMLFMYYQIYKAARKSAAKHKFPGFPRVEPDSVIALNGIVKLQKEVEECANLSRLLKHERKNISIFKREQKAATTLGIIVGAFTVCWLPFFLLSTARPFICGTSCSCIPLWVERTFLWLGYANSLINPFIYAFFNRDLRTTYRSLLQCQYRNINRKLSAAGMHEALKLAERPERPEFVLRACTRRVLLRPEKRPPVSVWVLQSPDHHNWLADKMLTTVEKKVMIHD
# Procedure: as §3
# human 5-HT2A receptor [5] = target: T2, human 5-HT2A receptor; experiment: Test 2: antagonist activity for human 5-HT2A receptor (aequorin luminescence, CHO-K1 cells); assay type: cell-based; conditions: Gα16
# Procedure: (§4) Test 2: Evaluation of Antagonist Activity for Human 5-HT2A Receptor and Human 5-HT7 Receptor
# (§5) Aequorin, Gα 16 protein, and each receptor were transiently expressed in CHO-K1 cells (Chinese hamster ovary). The cells were cultivated in a CO2 incubator at 37° C. overnight, seeded into a 384-well plate, and stood at room temperature for 2 hours. Each compound dissolved in DMSO was added thereto, and changes in luminescence were measured by FDSS/μCELL drug discovery screening support system (Hamamatsu Photonics K.K.). As for antagonist activity, inhibitory activity of each compound was calculated by setting the luminescence level of wells to which 10 μmol/L endogenous ligand was added as 100%.
# human 5-HT7 receptor [6] = target: T3, human 5-HT7 receptor; experiment: Test 2: antagonist activity for human 5-HT7 receptor (aequorin luminescence, CHO-K1 cells); assay type: cell-based; conditions: Gα16
# Procedure: as §4, §5
# hERG channel = target: T4, hERG channel (Homo sapiens, UniProt Q12809); experiment: Test 5: inhibitory activity for hERG channel (whole cell patch clamp, hERG-CHO cells); assay type: cell-based
# T4 construct: host or cells: hERG-CHO cells
# T4 sequence (Q12809 whole entry): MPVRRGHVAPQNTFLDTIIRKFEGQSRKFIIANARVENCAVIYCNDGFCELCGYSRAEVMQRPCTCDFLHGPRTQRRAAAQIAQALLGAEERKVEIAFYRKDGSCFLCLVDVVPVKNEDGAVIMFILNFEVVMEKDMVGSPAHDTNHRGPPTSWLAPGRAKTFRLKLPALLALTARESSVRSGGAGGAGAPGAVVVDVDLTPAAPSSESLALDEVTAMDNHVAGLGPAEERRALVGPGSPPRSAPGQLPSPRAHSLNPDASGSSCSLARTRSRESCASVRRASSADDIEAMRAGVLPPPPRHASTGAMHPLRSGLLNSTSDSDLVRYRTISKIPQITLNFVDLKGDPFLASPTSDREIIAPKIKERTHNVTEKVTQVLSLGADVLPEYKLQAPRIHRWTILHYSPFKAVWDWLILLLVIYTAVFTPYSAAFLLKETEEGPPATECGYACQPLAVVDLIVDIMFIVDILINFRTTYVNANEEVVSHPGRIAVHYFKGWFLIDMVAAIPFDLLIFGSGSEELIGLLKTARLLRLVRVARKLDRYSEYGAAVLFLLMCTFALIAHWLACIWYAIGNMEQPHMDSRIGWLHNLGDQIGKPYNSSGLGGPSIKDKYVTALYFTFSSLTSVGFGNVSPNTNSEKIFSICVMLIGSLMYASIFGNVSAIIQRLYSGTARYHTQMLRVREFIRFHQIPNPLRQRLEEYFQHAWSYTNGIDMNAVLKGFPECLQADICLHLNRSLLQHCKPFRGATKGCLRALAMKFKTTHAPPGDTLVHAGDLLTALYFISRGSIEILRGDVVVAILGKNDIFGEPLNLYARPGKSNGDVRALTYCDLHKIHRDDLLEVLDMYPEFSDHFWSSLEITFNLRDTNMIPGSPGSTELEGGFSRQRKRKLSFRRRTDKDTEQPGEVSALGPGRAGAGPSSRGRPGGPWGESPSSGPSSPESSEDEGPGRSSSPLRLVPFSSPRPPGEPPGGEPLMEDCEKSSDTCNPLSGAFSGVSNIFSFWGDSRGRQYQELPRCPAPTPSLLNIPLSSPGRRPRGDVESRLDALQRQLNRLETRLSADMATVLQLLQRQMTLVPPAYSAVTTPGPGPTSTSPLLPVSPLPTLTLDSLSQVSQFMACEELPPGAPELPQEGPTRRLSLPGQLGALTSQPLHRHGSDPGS
# Procedure: Test 5: Evaluation of Inhibitory Activity for hERG Channel
# Inhibitory activity of the present compound for hERG channel was measured by whole cell patch clamp method with an auto patch clamp system using CHO cells in which hERG channel involved in human rapidly activating delayed rectifier potassium current (IKr) was forcibly expressed.
# hERG-CHO cells purchased from ChanTest Cop. were cultured in a CO2 incubator at 37° C., and dissociated from a flask with trypsin shortly before the measurement of hERG current to prepare a cell suspension.
# The cell suspension, the extracellular fluid, the intracellular fluid, and the measurement plate were set in an auto patch clamp system, and hERG current was measured by whole cell patch clamp method. […] Each pulse interval was 15 seconds. The data analysis was carried out with Qube Assay Software (Sophion Sophion). The test was carried out by applying incrementally 4 concentrations of each test compound, and the average of the maximum peak tail currents which were obtained from the last 3 stimulations in each concentration was determined as the evaluated data.
smiles,measurement,setting,value
"CCN(CCN1CCC(c2noc3cc(F)ccc23)CC1)C(=O)[C@H](C)O [Example 16, (2S)-N-Ethyl-N-{2-[4-(6-fluoro-1,2-benzoisoxazol-3-yl)piperidin-1-yl]ethyl}-2-hydroxypropanamide]",Metabolic stability in human hepatic microsome,[1],<0.05 mL/min/mg protein
same,Metabolic stability in human hepatic microsome,[2],0.018 mL/min/mg protein
"CCN(CCN1CCC(c2noc3cc(F)ccc23)CC1)C(=O)C(O)CN (centres unmarked) [Example 65, 3-Amino-N-ethyl-N-{2-[4-(6-fluoro-1,2-benzoisoxazol-3-yl)piperidin-1-yl]ethyl}-2-hydroxypropanamide]",D2 Ki/5-HT2A Ki,human D2 receptor,48
same,D2 Ki/5-HT7 Ki,human D2 receptor,26
same,Metabolic stability in human hepatic microsome,[1],<0.05 mL/min/mg protein
"CCN(CCN1CCC(c2noc3cc(F)ccc23)CC1)C(=O)CCO [Example 17, N-Ethyl-N-{2-[4-(6-fluoro-1,2-benzoisoxazol-3-yl)piperidin-1-yl]ethyl}-3-hydroxypropanamide]",Metabolic stability in human hepatic microsome,[1],<0.05 mL/min/mg protein
same,Metabolic stability in human hepatic microsome,[2],0.0025 mL/min/mg protein
"CCN(CCN1CCC(c2noc3cc(F)ccc23)CC1)C(=O)C(O)CNC(C)=O (centres unmarked) [Example 71, 3-Acetamide-N-ethyl-N-{2-[4-(6-fluoro-1,2-benzoisoxazol-3-yl)piperidin-1-yl]ethyl}-2-hydroxypropanamide]",Ki,human 5-HT2A receptor [3],2.2 nM
same,Ki,human 5-HT7 receptor [4],6.2 nM
same,Ki,"human D2 receptor; human D2 receptor, [3H]Spiperone",223 nM
same,D2 Ki/5-HT2A Ki,human D2 receptor,99
same,D2 Ki/5-HT7 Ki,human D2 receptor,36
same,IC50,human 5-HT2A receptor [5],25 nM
same,IC50,human 5-HT7 receptor [6],78 nM
same,Metabolic stability in human hepatic microsome,[1],<0.05 mL/min/mg protein
same,IC50,"hERG channel; hERG-CHO cells, auto patch clamp",> 10000 nM
same,hERG inhibitory IC50 (nmol/L)/5-HT7 Ki (nmol/L),hERG channel; ratio,>1624
CCN(CCN1CCC(c2noc3cc(F)ccc23)CC1)S(=O)(=O)C(C)CO (centres unmarked) [Example 52],D2 Ki/5-HT2A Ki,human D2 receptor,>34
same,D2 Ki/5-HT7 Ki,human D2 receptor,>30
"CCN(CCN1CCC(c2noc3cc(F)ccc23)CC1)S(=O)(=O)CCO [Example 51, N-Ethyl-N-{2-[4-(6-fluoro-1,2-benzoisoxazol-3-yl)piperidin-1-yl]ethyl}-2-hydroxyethane-1-sulfonamide]",Metabolic stability in human hepatic microsome,[1],<0.05 mL/min/mg protein
same,Metabolic stability in human hepatic microsome,[2],0.016 mL/min/mg protein
CCN(CCN1CCC(c2noc3cc(F)ccc23)CC1)C(=O)[C@H]1CC[C@@H](O)CC1 [Example 44],Metabolic stability in human hepatic microsome,[1],<0.05 mL/min/mg protein
"CCN(CCN1CCC(c2noc3cc(F)ccc23)CC1)C(=O)[C@@H](C)O [Example 1, (2R)-N-Ethyl-N-{2-[4-(6-fluoro-1,2-benzoisoxazol-3-yl)piperidin-1-yl]ethyl}-2-hydroxypropanamide]",Metabolic stability in human hepatic microsome,[1],<0.05 mL/min/mg protein
"CCN(CCN1CCC(c2n[nH]c3cc(F)ccc23)CC1)C(=O)C(C)O (centres unmarked) [Example 19, N-Ethyl-N-{2-[4-(6-fluoro-1H-indazol-3-yl)piperidin-1-yl]ethyl}-2-hydroxypropanamide]",Metabolic stability in human hepatic microsome,[1],<0.05 mL/min/mg protein
CCN(CCN1CCC(c2noc3cc(F)ccc23)CC1)C(=O)C1CNCCC1O (centres unmarked) [Example 67],Metabolic stability in human hepatic microsome,[1],<0.05 mL/min/mg protein
CCN(CCN1CCC(c2noc3cc(F)c(C)cc23)CC1)S(=O)(=O)CCO [Example 58],Metabolic stability in human hepatic microsome,[1],<0.05 mL/min/mg protein
